Test results reported in patent US4853467A, “Nitrogen containing derivatives of epipodophyllotoxin glucosides” (Bristol-Myers Company, priority 1987, dated 1989).
Values after ≈ are worked out from the molar mass of the structure shown.

Key:
HCT-116 = experiment: In vitro cytotoxicity assay, HCT-116 human colon tumor; format: cell-based; conditions: two values per compound, four-fold serial dilution; for In vitro cytotoxicity IC50, HCT-116: HCT-116 human colon; for IC50: Homo sapiens, HCT-116, HCT-116 human colon
Description: (§1) The in vitro cytotoxicity assay involved growing various mammalian tumor cells, including human tumor cells, on microtitre plates employing established tissue culture methods. The concentration of each compound required to inhibit cell growth by 50% (IC50) was then determined by a four-fold serial dilution technique. The validity of the method has been supported by a report published in the "Proceedings of the American Association for Cancer Research", 1984, 25:1891 (Abst. No. 328). Tumor cells of the following types were employed for each compound tested: B16-F10 murine melanoma; Moser human colon; SW900 human lung and three human colon tumor cell lines namely HCT-116, HCT-VM, and HCT-VP, the latter two being resistant to teniposide (VM) and etoposide (VP), respectively. IC50 values less than 500 μg/ml are a positive indicator of antitumor activity. Table II presents IC50 values of various compounds of the present invention against the aforementioned cell lines.

P388 murine leukemia = experiment: P388 Leukemia, antitumor activity against murine P388 leukemia; format: in vivo, murine (female CDF1 mice); conditions: i.p. on days 5 and 8; 10^6 P388 cells i.p.; maximum effect over doses; >=125 considered significant; etoposide values in parentheses are positive control in same experiment
Description: Female CDF1 mice were implanted intraperitoneally with a tumor inoculum of 10^6 ascites cells of P388 murine leukemia and treated with various doses of a test compound; four mice were used for each dose level and ten were used as saline-treated control. The compounds were administered by intraperitoneal injection on days 5 and 8 (day 1 being the day of tumor implantation). Antitumor activity was expressed as % T/C which is the ratio of the median survival time (MST) of drug-treated group to the MST of saline-treated control group. A compound showing a % T/C value of 125 or greater is generally considered to have significant antitumor activity in the P388 test. The experiment lasted 31 days at the end of which time the number of survivors was noted. Table I presents the results of the above-described evaluation; only the maximum % T/C and the dose showing the maximum effect are reported.

HCT/VP35 = experiment: In vitro cytotoxicity assay, HCT/VP35 etoposide-resistant human colon tumor; format: cell-based; conditions: two values per compound, four-fold serial dilution; for In vitro cytotoxicity IC50, HCT/VP35: HCT/VP35, resistant to etoposide; for IC50: Homo sapiens, HCT/VP35, HCT/VP35, resistant to etoposide
Description: as §1

SW900 human lung = experiment: In vitro cytotoxicity assay, SW900 human lung; format: cell-based; conditions: two values per compound, four-fold serial dilution; for IC50: Homo sapiens, SW900, SW900 human lung
Description: as §1

B16-F10 murine melanoma = experiment: In vitro cytotoxicity assay, B16-F10 murine melanoma; format: cell-based; conditions: two values per compound, four-fold serial dilution; for In vitro cytotoxicity IC50, B-16-F10: B16-F10 murine melanoma; for IC50: Mus musculus, B16-F10, B16-F10 murine melanoma, read-out: In vitro cytotoxicity IC50, B-16-F10
Description: as §1

Moser human colon = experiment: In vitro cytotoxicity assay, Moser human colon; format: cell-based; conditions: two values per compound, four-fold serial dilution; for IC50: Homo sapiens
Description: as §1

HCT/VM34 = experiment: In vitro cytotoxicity assay, HCT/VM34 teniposide-resistant human colon tumor; format: cell-based; conditions: HCT/VM34, resistant to teniposide, two values per compound, four-fold serial dilution; for IC50: Homo sapiens
Description: as §1

Structure (SMILES) | In vitro cytotoxicity IC50, HCT-116 (HCT-116) [µg/mL] | IC50 (HCT-116) [µg/mL] | Max % T/C (ratio of median survival time of drug-treated group to saline-treated control group) (P388 murine leukemia) [%] | In vitro cytotoxicity IC50, HCT/VP35 (HCT/VP35) [µg/mL] | IC50 (HCT/VP35) [µg/mL] | IC50 (SW900 human lung) [µg/mL] | In vitro cytotoxicity IC50, B-16-F10 (B16-F10 murine melanoma) [µg/mL] | IC50 (B16-F10 murine melanoma) [µg/mL] | IC50 (Moser human colon) [µg/mL] | In vitro cytotoxicity IC50, MOSER (Moser human colon) [µg/mL] | In vitro cytotoxicity IC50, SW900 (SW900 human lung; SW900 human lung) [µg/mL] | In vitro cytotoxicity IC50, HCT/VM34 (HCT/VM34) [µg/mL] | IC50 (HCT/VM34) [µg/mL]
COc1cc([C@@H]2c3cc4c(cc3[C@@H](O[C@@H]3O[C@@H]5CO[C@@H](C)O[C@H]5[C@H](O)[C@H]3O)[C@H]3COC(=O)[C@H]23)OCO4)cc(NS(C)(=O)=O)c1O [Example 12, 3'-Desmethoxy-3'-methanesulfonamido etoposide] | 62 | 54 (≈ 82.9 µM) | 150 | 132 | 88 (≈ 135 µM) | > 188 | 54 | 61 (≈ 93.6 µM) | – | – | – | – | –
COc1cc([C@@H]2c3cc4c(cc3[C@@H](O[C@@H]3O[C@@H]5CO[C@@H](C)O[C@H]5[C@H](O)[C@H]3O)[C@H]3COC(=O)[C@H]23)OCO4)cc(N=Cc2ccco2)c1O [Example 18, 3'-Desmethoxy-3'-[(2-furyl)methylene]amino etoposide] | 18.4 | 29 (≈ 44.5 µM) | 200 | – | – | 42 (≈ 64.5 µM) | 15.3 | 12.5 (≈ 19.2 µM) | 40 (≈ 61.4 µM) | 37 | 40 | – | –
CC(=O)NC1=CC([C@@H]2c3cc4c(cc3[C@@H](O[C@@H]3O[C@@H]5CO[C@@H](C)O[C@H]5[C@H](O)[C@H]3O)[C@H]3COC(=O)[C@@H]32)OCO4)=CC(=O)C1=O [Example 28, 5'-Desmethoxy-5'-acetylamino etoposide 3',4'-orthoquinone] | 68 | 66 (≈ 110 µM) | 125 | 70 | 84 (≈ 140 µM) | – | 81 | 72 (≈ 120 µM) | 87 (≈ 145 µM) | 71 | – | 64 | 58 (≈ 96.7 µM)
COc1cc([C@@H]2c3cc4c(cc3[C@@H](O[C@@H]3O[C@@H]5CO[C@@H](C)O[C@H]5[C@H](O)[C@H]3O)[C@H]3COC(=O)[C@H]23)OCO4)cc(N=Cc2cc(OC)c(OC)c(OC)c2)c1O [Example 21, 3'-Desmethoxy-3'-[[(3,4,5-trimethoxy)phenyl]methylene]amino etoposide] | – | – | 225 | 15.6 | 26 (≈ 34.6 µM) | – | 4.3 | 5.3 (≈ 7.05 µM) | 25 (≈ 33.3 µM) | 27 | – | 10.6 | 14 (≈ 18.6 µM)
COc1cc([C@@H]2c3cc4c(cc3[C@@H](O[C@@H]3O[C@@H]5CO[C@@H](C)O[C@H]5[C@H](O)[C@H]3O)[C@H]3COC(=O)[C@H]23)OCO4)cc2ncoc12 [Example 27, Etoposide benzoxazole derivative] | – | – | 165 | 15.6 | 26 (≈ 44.6 µM) | – | 4.3 | 5.3 (≈ 9.08 µM) | 25 (≈ 42.8 µM) | 27 | – | 10.6 | 14 (≈ 24 µM)
